Values of other authors as cited in patent publication US9757374B2, “Aripiprazole compositions and methods for its transdermal delivery” (Aequus Pharmaceuticals Inc., priority 2010, dated 2017).

solubility in water: practically insoluble
Structure (SMILES): O=C1CCc2ccc(OCCCCN3CCN(c4cccc(Cl)c4Cl)CC3)cc2N1 [ARPZ, Aripiprazole]
